This is an account of results in BindingDB's records for doi:10.1016/j.bmcl.2009.09.017 (Pfizer, 2009).

What is called IC50 is the concentration that gives 50% inhibition.

This assay can be described thus: Antagonist activity at P2Y12 receptor in human platelet rich plasma assessed as inhibition of ADP-induced platelet aggregation by light transmission aggregometry.
In the case of `CCCCCOC(=O)N1CCN(C(=O)[C@H](CCC(=O)O)NC(=O)c2cc(N3CCC(OCCOC)CC3)nc(-c3ccccc3)n2)CC1` [(S)-4-(6-(4-(2-methoxyethoxy)piperidin-1-yl)-2-phenylpyrimidine-4-carboxamido)-5-oxo-5-(4-(pentyloxycarbonyl)piperazin-1-yl)pentanoic acid], the concentration for half-maximal inhibition (IC50) stood at 1400 nM.
For `CCCCOC(=O)N1CCN(C(=O)[C@H](CCC(=O)O)NC(=O)c2cc(OCC3CCNCC3)nc(-c3ccccc3)n2)CC1` [(S)-5-(4-(butoxycarbonyl)piperazin-1-yl)-5-oxo-4-(2-phenyl-6-(piperidin-4-ylmethoxy)pyrimidine-4-carboxamido)pentanoic acid], the half-inhibitory concentration (IC50) stood at 1200 nM.
Take `CCCCCOC(=O)N1CCN(C(=O)[C@H](CCC(=O)O)NC(=O)c2nc(-c3ccccc3)cc(N3CCC(CCOC)CC3)n2)CC1` [(S)-4-(4-(4-(2-methoxyethyl)piperidin-1-yl)-6-phenylpyrimidine-2-carboxamido)-5-oxo-5-(4-(pentyloxycarbonyl)piperazin-1-yl)pentanoic acid]: the IC50 is above 10000 nM.
With `CCCCCOC(=O)N1CCN(C(=O)[C@H](CCC(=O)O)NC(=O)c2nc(-c3ccccc3)cc(N3CCC(OC)CC3)n2)CC1` [(S)-4-(4-(4-methoxypiperidin-1-yl)-6-phenylpyrimidine-2-carboxamido)-5-oxo-5-(4-(pentyloxycarbonyl)piperazin-1-yl)pentanoic acid] the figure was above 10000 nM; with `CCCCCOC(=O)N1CCN(C(=O)[C@H](CCC(=O)O)NC(=O)c2nc(-c3ccccc3)cc(N3CCC(COCCOC)CC3)n2)CC1` [(S)-4-(4-(4-((2-methoxyethoxy)methyl)piperidin-1-yl)-6-phenylpyrimidine-2-carboxamido)-5-oxo-5-(4-(pentyloxycarbonyl)piperazin-1-yl)pentanoic acid], above 10000 nM.
Turning to `CCCCOC(=O)N1CCN(C(=O)[C@H](CCC(=O)O)NC(=O)c2cc(OC3CCN(C(C)C)CC3)nc(-c3ccccc3)n2)CC1` [(S)-5-(4-(butoxycarbonyl)piperazin-1-yl)-4-(6-(1-isopropylpiperidin-4-yloxy)-2-phenylpyrimidine-4-carboxamido)-5-oxopentanoic acid], the 50% inhibitory concentration (IC50) was 1800 nM.
With `CCCCOC(=O)N1CCN(C(=O)[C@H](CCC(=O)O)NC(=O)c2cc(OC3CCNCC3)nc(-c3ccccc3)n2)CC1` [(S)-5-(4-(butoxycarbonyl)piperazin-1-yl)-5-oxo-4-(2-phenyl-6-(piperidin-4-yloxy)pyrimidine-4-carboxamido)pentanoic acid] the figure was 1300 nM; with `CCCCCOC(=O)N1CCN(C(=O)[C@H](CCC(=O)O)NC(=O)c2cc(OCCOC)nc(-c3ccccc3)n2)CC1` [(S)-4-(6-(2-methoxyethoxy)-2-phenylpyrimidine-4-carboxamido)-5-oxo-5-(4-(pentyloxycarbonyl)piperazin-1-yl)pentanoic acid], 7900 nM; with `CCCCCOC(=O)N1CCN(C(=O)[C@H](CCC(=O)O)NC(=O)c2nc(NC3CCN(C(C)C)CC3)cc(-c3ccccc3)n2)CC1` [(S)-4-(4-(1-isopropylpiperidin-4-ylamino)-6-phenylpyrimidine-2-carboxamido)-5-oxo-5-(4-(pentyloxycarbonyl)piperazin-1-yl)pentanoic acid], above 10000 nM.
For `CCCCCOC(=O)N1CCN(C(=O)[C@H](CCC(=O)O)NC(=O)c2cc(N3CCC(CCN4CCCC4)CC3)nc(-c3ccccc3)n2)CC1` [(S)-5-oxo-5-(4-(pentyloxycarbonyl)piperazin-1-yl)-4-(2-phenyl-6-(4-(2-(pyrrolidin-1-yl)ethyl)piperidin-1-yl)pyrimidine-4-carboxamido)pentanoic acid], the 50% inhibitory concentration (IC50) came to 810 nM.
Turning to `CCCCCOC(=O)N1CCN(C(=O)[C@H](CCC(=O)O)NC(=O)c2nc(OCCN(CC)CC)cc(-c3ccccc3)n2)CC1` [(S)-4-(4-(2-(diethylamino)ethoxy)-6-phenylpyrimidine-2-carboxamido)-5-oxo-5-(4-(pentyloxycarbonyl)piperazin-1-yl)pentanoic acid], the 50% inhibitory concentration (IC50) is above 10000 nM.
For the compound `CCCCCOC(=O)N1CCN(C(=O)[C@H](CCC(=O)O)NC(=O)c2cc(OCC3CCN(C)CC3)nc(-c3ccccc3)n2)CC1` [(S)-4-(6-((1-methylpiperidin-4-yl)methoxy)-2-phenylpyrimidine-4-carboxamido)-5-oxo-5-(4-(pentyloxycarbonyl)piperazin-1-yl)pentanoic acid], the IC50 came to 3600 nM.
Regarding `CCCCCOC(=O)N1CCN(C(=O)[C@H](CCC(=O)O)NC(=O)c2nc(-c3ccccc3)cc(N3CCN(C)CC3)n2)CC1` [(S)-4-(4-(4-methylpiperazin-1-yl)-6-phenylpyrimidine-2-carboxamido)-5-oxo-5-(4-(pentyloxycarbonyl)piperazin-1-yl)pentanoic acid], the IC50 is 8100 nM.
With `CCCCCOC(=O)N1CCN(C(=O)[C@H](CCC(=O)O)NC(=O)c2cc(N3CCC(N4CCOCC4)CC3)nc(-c3ccccc3)n2)CC1` [(S)-4-(6-(4-morpholinopiperidin-1-yl)-2-phenylpyrimidine-4-carboxamido)-5-oxo-5-(4-(pentyloxycarbonyl)piperazin-1-yl)pentanoic acid], the IC50 was 780 nM.
On to `CCCCCOC(=O)N1CCN(C(=O)[C@H](CCC(=O)O)NC(=O)c2nc(-c3ccccc3)cc(N3CCC(CNC)CC3)n2)CC1` [(S)-4-(4-(4-((methylamino)methyl)piperidin-1-yl)-6-phenylpyrimidine-2-carboxamido)-5-oxo-5-(4-(pentyloxycarbonyl)piperazin-1-yl)pentanoic acid], for which the IC50 is 1300 nM.
Take `CCCCOC(=O)N1CCN(C(=O)[C@H](CCC(=O)O)NC(=O)c2cc(N3CCC(C(=O)N(C)C)CC3)nc(-c3ccccc3)n2)CC1` [(S)-5-(4-(butoxycarbonyl)piperazin-1-yl)-4-(6-(4-(dimethylcarbamoyl)piperidin-1-yl)-2-phenylpyrimidine-4-carboxamido)-5-oxopentanoic acid]: the IC50 amounted to 1500 nM.
For the compound `CCCCCOC(=O)N1CCN(C(=O)[C@H](CCC(=O)O)NC(=O)c2nc(OCC3CCNCC3)cc(-c3ccccc3)n2)CC1` [(S)-5-oxo-5-(4-(pentyloxycarbonyl)piperazin-1-yl)-4-(4-phenyl-6-(piperidin-4-ylmethoxy)pyrimidine-2-carboxamido)pentanoic acid], the IC50 was 9400 nM.
Regarding `CCCCCOC(=O)N1CCN(C(=O)[C@H](CCC(=O)O)NC(=O)c2nc(NCCCN(C)C)cc(-c3ccccc3)n2)CC1` [(S)-4-(4-(3-(dimethylamino)propylamino)-6-phenylpyrimidine-2-carboxamido)-5-oxo-5-(4-(pentyloxycarbonyl)piperazin-1-yl)pentanoic acid], the IC50 is above 10000 nM.
Take `CCCCCOC(=O)N1CCN(C(=O)[C@H](CCC(=O)O)NC(=O)c2cc(N3CCC(C(=O)N(C)C)CC3)nc(-c3ccccc3)n2)CC1` [(S)-4-(6-(4-(dimethylcarbamoyl)piperidin-1-yl)-2-phenylpyrimidine-4-carboxamido)-5-oxo-5-(4-(pentyloxycarbonyl)piperazin-1-yl)pentanoic acid]: the IC50 came to 370 nM.
Regarding `CCCCCOC(=O)N1CCN(C(=O)[C@H](CCC(=O)O)NC(=O)c2cc(N3CCN(CC(=O)N(C)C)CC3)nc(-c3ccccc3)n2)CC1` [(S)-4-(6-(4-(2-(dimethylamino)-2-oxoethyl)piperazin-1-yl)-2-phenylpyrimidine-4-carboxamido)-5-oxo-5-(4-(pentyloxycarbonyl)piperazin-1-yl)pentanoic acid], the half-maximal inhibitory concentration (IC50) was 530 nM.
